Experimental data taken from patent publication US20040076974A1, “Liver necrosis predictive genes” (priority 2002, published 2004).
“And” between values parts separate entries of the source, which are not always exact repeats. Equal values may be shown once. Read-outs that look alike come from different tables or passages of the source.

Tests used:
[1] = test system: toxicologically relevant rat genes (rat CT array)
[2] = test system: Sprague Dawley rats; settings: for Liver Necrosis / Score (histopathology liver necrosis severity score): rat, intraperitoneal; for Liver Necrosis: 72 hours after treatment; for Score (histopathology liver necrosis severity score): 72 hours, 1 = not remarkable, 2 and higher increasing severity
How it was run: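 Toxicity calls (necrosis present or absent at 72 h) and histopathology scores were correlated with tissue gene expression from Crl:CD Sprague Dawley rats. Animals, usually 3 treated with compound by i.p. route and 3 given vehicle, were killed at 6, 24 or 72 h and tissues frozen immediately in liquid nitrogen.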

Brc1ccccc1 [bromobenzene]
Ribosomal protein L13A expression (treatment/control) ([1]; 24 h, dose 200, listed as BRB): 2.014 and 1.811 and 2.099
Ribosomal protein S8 expression (treatment/control) ([1]; 24 h, dose 200, listed as BRB): 2.657 and 2.216 and 2.391
Ribosomal protein S9 expression (treatment/control) ([1]; 24 h, dose 200, listed as BRB): 1.821 and 1.272 and 1.544
Ribosomal protein S17 expression (treatment/control) ([1]; 24 h, dose 200, listed as BRB): 2.853 and 2.061 and 2.44
Superoxide dismutase Mn expression (treatment/control) ([1]; 24 h, dose 200, listed as BRB): 2.675 and 1.611 and 3.075
T-cell cyclophilin expression (treatment/control) ([1]; 24 h, dose 200, listed as BRB): 1.63 and 1.482 and 1.522
Thymosin beta-10 expression (treatment/control) ([1]; 24 h, dose 200, listed as BRB): 1.331 and 1.367 and 1.373
Ubiquitin conjugating enzyme (RAD 6 homologue) expression (treatment/control) ([1]; 24 h, dose 200, listed as BRB): 1.182 and 0.8017 and 1.22
Uncoupling protein 2 expression (treatment/control) ([1]; 24 h, dose 200, listed as BRB): 0.9873 and 1.103
c-H-ras expression (treatment/control) ([1]; 24 h, dose 200, listed as BRB): 1.3
c-jun expression (treatment/control) ([1]; 24 h, dose 200, listed as BRB): 1.819 and 1.494 and 2.242
p53 expression (treatment/control) ([1]; 24 h, dose 200, listed as BRB): 1.448 and 1.7
{Ribosomal protein L6} expression (treatment/control) ([1]; 24 h, dose 200, listed as BRB): 2.964 and 2.141 and 2.538
14-3-3 zeta expression (treatment/control) ([1]; 24 h, dose 800, listed as BRB): 1.787 and 1.416 and 1.415
17-beta hydroxysteroid dehydrogenase, type 2 expression (treatment/control) ([1]; 24 h, dose 800, listed as BRB): 0.2858 and 0.3548 and 0.3188
Cathepsin L, sequence 2 expression (treatment/control) ([1]; 24 h, dose 800, listed as BRB): 3.444 and 2.804 and 1.941
Dynamin-1 (D100) expression (treatment/control) ([1]; 24 h, dose 800, listed as BRB): 0.7266 and 0.7238 and 0.7854
Gadd45 expression (treatment/control) ([1]; 24 h, dose 800, listed as BRB): 3.152 and 4.261 and 2.965
Gamma-actin, cytoplasmic expression (treatment/control) ([1]; 24 h, dose 800, listed as BRB): 4.159 and 3.751 and 3.387
Insulin-like growth factor binding protein 1 expression (treatment/control) ([1]; 24 h, dose 800, listed as BRB): 2.338 and 2.353 and 1.62
L-gulono-gamma-lactone oxidase expression (treatment/control) ([1]; 24 h, dose 800, listed as BRB): 0.3036 and 0.326 and 0.3525
Matrin F/G expression (treatment/control) ([1]; 24 h, dose 800, listed as BRB): 0.4315 and 0.4295 and 0.6079
Ornithine decarboxylase expression (treatment/control) ([1]; 24 h, dose 800, listed as BRB): 2.92 and 2.902 and 2.002
PAR interacting protein expression (treatment/control) ([1]; 24 h, dose 800, listed as BRB): 3.554 and 2.34
Phase-1 RCT-33 expression (treatment/control) ([1]; 24 h, dose 800, listed as BRB): 0.6976 and 0.5633 and 0.5757
Phase-1 RCT-36 expression (treatment/control) ([1]; 24 h, dose 800, listed as BRB): 0.7359 and 0.7782
Phase-1 RCT-38 expression (treatment/control) ([1]; 24 h, dose 800, listed as BRB): 0.4296 and 0.4024 and 0.4536
Phase-1 RCT-39 expression (treatment/control) ([1]; 24 h, dose 800, listed as BRB): 1.555 and 1.399
Phase-1 RCT-40 expression (treatment/control) ([1]; 24 h, dose 800, listed as BRB): 0.4257 and 0.4952 and 0.445
Phase-1 RCT-48 expression (treatment/control) ([1]; 24 h, dose 800, listed as BRB): 0.6158 and 0.633
Phase-1 RCT-49 expression (treatment/control) ([1]; 24 h, dose 800, listed as BRB): 2.478 and 2.062 and 1.658
Phase-1 RCT-50 expression (treatment/control) ([1]; 24 h, dose 800, listed as BRB): 2.438 and 2.537 and 1.76
Phase-1 RCT-68 expression (treatment/control) ([1]; 24 h, dose 800, listed as BRB): 2.05 and 1.892 and 1.519
Phase-1 RCT-78 expression (treatment/control) ([1]; 24 h, dose 800, listed as BRB): 0.5752 and 0.6922 and 0.6621
Phase-1 RCT-83 expression (treatment/control) ([1]; 24 h, dose 800, listed as BRB): 0.6019 and 0.6858 and 0.5634
Phase-1 RCT-89 expression (treatment/control) ([1]; 24 h, dose 800, listed as BRB): 0.4544 and 0.462 and 0.4723
Phase-1 RCT-92 expression (treatment/control) ([1]; 24 h, dose 800, listed as BRB): 0.4761 and 0.6497 and 0.7002
Phase-1 RCT-128 expression (treatment/control) ([1]; 24 h, dose 800, listed as BRB): 0.5684 and 0.564 and 0.6
Phase-1 RCT-144 expression (treatment/control) ([1]; 24 h, dose 800, listed as BRB): 3.092 and 2.983 and 2.106
Phase-1 RCT-145 expression (treatment/control) ([1]; 24 h, dose 800, listed as BRB): 2.75 and 1.96 and 1.846
Phase-1 RCT-180 expression (treatment/control) ([1]; 24 h, dose 800, listed as BRB): 1.726
Phase-1 RCT-182 expression (treatment/control) ([1]; 24 h, dose 800, listed as BRB): 0.5041 and 0.56 and 0.6572
Phase-1 RCT-207 expression (treatment/control) ([1]; 24 h, dose 800, listed as BRB): 3.826 and 2.754 and 2.464
Phase-1 RCT-213 expression (treatment/control) ([1]; 24 h, dose 800, listed as BRB): 2.021 and 2.316 and 1.605
Phase-1 RCT-256 expression (treatment/control) ([1]; 24 h, dose 800, listed as BRB): 0.3752 and 0.4196 and 0.4307
Phase-1 RCT-258 expression (treatment/control) ([1]; 24 h, dose 800, listed as BRB): 1.65
Phase-1 RCT-264 expression (treatment/control) ([1]; 24 h, dose 800, listed as BRB): 0.3546 and 0.4999 and 0.3553
Phase-1 RCT-271 expression (treatment/control) ([1]; 24 h, dose 800, listed as BRB): 0.5889 and 0.6221
Phase-1 RCT-288 expression (treatment/control) ([1]; 24 h, dose 800, listed as BRB): 0.3511 and 0.3915 and 0.4038
Phase-1 RCT-291 expression (treatment/control) ([1]; 24 h, dose 800, listed as BRB): 0.6663 and 0.746 and 0.732
Phase-1 RCT-295 expression (treatment/control) ([1]; 24 h, dose 800, listed as BRB): 1.75 and 2.065 and 1.52
Phase-1 RCT-296 expression (treatment/control) ([1]; 24 h, dose 800, listed as BRB): 0.3839 and 0.27 and 0.2605
Ribosomal protein S17 expression (treatment/control) ([1]; 24 h, dose 800, listed as BRB): 2.61 and 2.612 and 1.969
Senescence marker protein-30 expression (treatment/control) ([1]; 24 h, dose 800, listed as BRB): 0.1397 and 0.1646 and 0.1474
Zinc finger protein expression (treatment/control) ([1]; 24 h, dose 800, listed as BRB): 3.935 and 2.153 and 2.076
Paraoxonase 1 expression (treatment/control) ([1]; rat, in vivo): 0.8235 and 0.866 and 0.513
Liver Toxicity Necrosis Classification ([2]; 72 h, compound-dose group, dose BRB 800, BUS 14, CAD 1, CAR 16): yes
Liver Toxicity Necrosis Classification ([2]; 72 h, dose 200, animals 2327, 2328, 2329): yes
Liver Toxicity Necrosis Classification ([2]; 72 h, dose 800, animal 2337): yes
Liver Toxicity Necrosis Classification ([2]; compound-dose group at 72 h, dose 200, yes = necrosis observed): yes
Liver Toxicity Necrosis Classification ([2]; compound-dose group at 72 h, dose 800, yes = necrosis observed): yes
Liver Toxicity Necrosis Classification ([2]; compound-dose group at 72 h, dose 200): yes
Liver Toxicity Necrosis Classification ([2]; compound-dose group at 72 h, dose 800): yes
Liver Necrosis ([2]; dose 0.2 ml/kg): Yes
Score (histopathology liver necrosis severity score) ([2]; dose 0.2 ml/kg): 2
Liver Necrosis ([2]; dose 0.8 ml/kg): Yes
Score (histopathology liver necrosis severity score) ([2]; dose 0.8 ml/kg): 4
